Assay results reported in patent US6867027B1, “RNA polymerase” (The Institute of Physical and Chemical Research, priority 1997, dated 2005).

Legend:
Format in all cases: biochemical
[1] = Inhibition of [α-32P]UTP incorporation by 3′-dATP in the transcription reaction (3′-dNTP incorporation rate); details: compared with wild type T7 RNA polymerase
Protocol: Ribonucleotide (NTP) and 3′-deoxynucleotide (3′-dNTP) incorporation rates of the mutant T7 RNA polymerase purified in Example 7 were measured as follows.
pBluescript(KS+) plasmid (Stratagene) linearized by reaction with a restriction endonuclease, PvuII, was used as a template for the transcription reaction, and 250 μM each of ATP, CTP, GTP, and UTP, 2 mM of spermidine-(HCl)3, 5 mM of DTT, 40 mM Tris/HCl pH 8.0, 0.1 μl of [α-^32P] UTP (3000 Ci/mmole), and 25 units of the mutant T7 RNA polymerase F644Y/L665P/F667Y were also used for the reaction. For two kinds of reaction mixture (with or without 3′-dATP, final concentration was 100 μM), the reaction was performed at 37° C. for 60 minutes. The whole reaction mixture was spotted on DE81 paper (Whatman), washed three times with phosphate buffer, and dried. The DE81 paper was placed into a scintillation vial, and radioactivity was measured using a scintillation counter (Beckman) for each reaction. Degree of inhibition of the [α-^32P] UTP incorporation was calculated by comparing the values obtained with and without 3′-dATP based on the measured radioactivity. The relative activity obtained from calculated inhibition degree and defined as a relative value to the inhibition degree of the wild type T7 RNA polymerase normalized to 1.000 was shown in Table 1.
The inhibition degree was calculated by using the wild type T7 RNA polymerase, T7 RNA polymerase F644Y, L665P/F667Y obtained in Example 3, mutant T7 RNA polymerase F644Y/L665P, F782Y, F733Y, F646Y or Y639F constructed and purified in the same manner as in Examples 2 and 3 for the reaction instead of the above F644Y/L665P/F667Y mutant, and relative activities are shown in Table 1.
For example, it is meant that the mutant T7 RNA polymerase F644Y/L665P/F667Y is 5.58 times more likely to incorporate 31-dATP in comparison with the wild type enzyme.

[2] = system: DNA containing T7 promoter; assay: In vitro RNA synthesis activity (enzyme dilution method, plasmid containing T7 promoter as template); details: compared with wild type T7 RNA polymerase
Text: The T7 RNA polymerases introduced with mutations were purified, and their abilities of promoter sequence specific RNA synthesis and incorporation of ribonucleoside 5′-triphosphates including ATP, GTP, CTP, UTP and derivatives thereof, as well as 3′-dATP, 3′-dGTP, 3′-dCTP, 3′-dUTP and derivatives thereof were compared with those of wild type T7 RNA polymerase.
All of the mutant T7 RNA polymerases can be purified by principally the same method. The difference of mutation site may cause some difference in the expression level, and behavior in column chromatography. The purification method of mutant T7 RNA polymerase F644Y is exemplified hereinafter. The expression vector pT7RF644Y for F644Y was introduced into E. coli DH5∝, and the cells were cultured in a test tube containing LB culture medium containing antibiotic ampicillin. When the OD (600 nm) of the medium reached 0.4-0.6, isopropyl-β-thiogalactopyranoside (IPTG) was added to the culture to a final concentration of 0.4 mM, and the cultivation was further continued for additional 8 hours. Then, the E. coli cells were collected by centrifugation. Typically, 2 liters of culture medium affords 10 g of E. coli cells in wet weight. If the E. coli cells are not used immediately, they can be stored in a refrigerator at −20° C. Subsequent steps for purification of enzyme should be performed at a temperature lower than room temperature, preferably 0-5° C. unless otherwise indicated. The E. coli cells were washed with 10 times relative to the cell weight of a washing buffer (20 mM Tris-HCl, pH 8.1, 130 mM NaCl, 2 mM EDTANa2 at 25° C.), centrifuged again [5,000×g, 4° C., 10 minutes), suspended in 10 times in volume of a sonication buffer (50 mM Tris-HCl, pH 8.1, 100 mM NaCl, 0.1 mM EDTANa2, 5 mM dithiothreitol (DTT), 0.1 mM benzamidine, 30 μg/ml phenylmethylsulfonyl fluoride (PMSF), 10 μg/ml bacitracin], and sonicated by using Sonifier 450 (Branson) at 80W for more than 15 minutes to destroy the cells and reduce the viscosity of the cells. […]

[3] = system: plasmid vector pBluescriptKS(+) having T7 promoter; assay: Sequencing reaction by the dye terminator method, linearized pBluescriptKS(+) template (Example 5); details: four dye terminators; for sequence reading: 37° C., 1 hour, ABI 377; for peak intensity in sequencing reaction: in comparison with wild type T7 RNA polymerase
Protocol: Sequencing reaction by the dye terminator method was performed utilizing the purified mutant T7 RNA polymerases F644Y and L665P/F667Y, and the wild type T7 RNA polymerase as follows for comparison.
For the in vitro transcription reaction, the method of Melton, D. A. (1984, Nucleic Acids Res., 12:7035-7056) exemplified in Example 4 was used. More specifically, the reaction was performed in a total reaction volume of 10 μl containing a plasmid vector pBluescriptKS (+) having T7 promoter linearized by the reaction with a restriction endonuclease PvuII or ScaI as a template, 5-carboxyrhodamine 6G-labeled 3′-deoxyadenosine-5′-triphosphate, 5-carboxyrhodamine 110-labeled 3′-deoxyguanosine-5′-triphosphate, 5-carboxy-X-rhodamine-labeled 3′-deoxycytidine-5′-triphosphate, and 5-carboxytetramethylrhodamine-labeled 3′-deoxyuridine-5′triphosphate, which were dye terminators prepared according to the method described in W096/14434 as derivatives of 3′-DNTP, 500 μM of GTP and UTP, 250 μM of ATP and CTP, 8 mM of MgCl2, 2 mM of spermidine-(HCl)3, 5 mM of DTT, 40 mM of Tris/HCl pH 8.0 (BRL, Gibco) and 25 units of wild type T7 RNA polymerase (BRL, Gibco or Nippon Gene) or the mutant T7 RNA polymerase F644Y at 37° C. for 1 hour. Then, to remove the unreacted dye terminators remained in the reaction product, the transcription product was purified by gel filtration using Sephadex G-50 column (Pharmacia Biotec), and the purification product was evaporated to dryness using a centrifugal evaporator.
(§1) The dried reaction product was dissolved in 6 μl of formamide/EDTA/Blue dextran loading buffer according to the instruction manual Ver. 1.0 of ABI PRISM 377 DNA Sequencing System available from Perkin-Elmer Japan, and 2 μl of the solution was analyzed by ABI 377 DNA Sequencer and an analysis program using denatured gel for sequencing analysis which contained 6M urea/4% Long Ranger™ acrylamide solution (FMC).

[4] = In vitro transcription with a single dye terminator, sequence ladder analysed on ABI 377 (Example 4); details: for incorporation efficiency for 3′-dCTP derivatives / peak intensities of the sequence ladders: compared with wild type; for peak intensities of the sequence ladders: FIG. 14 and FIG. 15
Protocol: 3′ -DNTP incorporation efficiency of the purified mutant T7 RNA polymerases F644Y and L665P/F667Y was compared with that of wild type T7 RNA polymerase as follows. In vitro transcription reaction was performed by, for example, a partially modified version of the method of Melton, D. A, [Nucleic Acids Res., 12:7035-7056 (1984)]. More specifically, the reaction was performed in a total volume of 10 μl containing a plasmid vector pBluescriptKS(+) having T7 promoter (Stratagene) linearized by the reaction with a restriction endonuclease PvuII or ScaI as a template, 150 μM of 5-carboxy-X-rhodamine-labeled 3′-deoxycytidine-5′-triphosphate which was a dye terminator prepared according to the method described in WO96/14434 as a derivative of 3′-dNTP, 500 μM of GTP and UTP, 250 μM of ATP and CTP, 8 mM Of MgCl2, 2 mM of spermidine-(HCl)3, 5 mM of DTT, 40 mM of Tris/HCl pH 8.0 (BRL, Gibco) and 25 units of wild type T7 RNA polymerase (BRL, Gibco or Nippon Gene) or the mutant T7 RNA polymerase F644Y or L665P/F667Y at 37° C. for 1 hour. Then, to remove the unreacted dye terminator remained in the reaction product, the transcription product was purified by gel filtration using Sephadex G-50 column (Pharmacia Biotec), and the purification product was evaporated to dryness using a centrifugal evaporator.
as §1
The peak intensities of the sequence ladders obtained by using F644Y and L665P/F667Y are shown in FIG. 14 and FIG. 15 with the peak intensity obtained by using wild type T7 RNA polymerase.

With “F667Y: T7 RNA polymerase in which F667 was replaced with Y” the “ability for incorporating 3′-dATP, 3′-dGTP, 3′-dCTP, 3′-dUTP and derivatives thereof” value (shortened to “ability for incorporating 3′-dATP”) [1] was “comparable to that of the L665P/F667Y mutant”.

In the case of “F733Y: T7 RNA polymerase in which F733 was replaced with Y”, the “ability for incorporating 3′-dATP” value [1] is reported as “slightly improved” and the RNA synthesis activity [2] is reported as “slightly decreased”.

In the case of “F782Y: T7 RNA polymerase in which F782 was replaced with Y”, the “ability for incorporating 3′-dATP” value [1] is reported as “slightly improved”.

In the case of “F882Y: T7 RNA polymerase in which F882 was replaced with Y”, the RNA synthesis activity [2] is reported as “markedly decreased”.

With “Wild type: wild type T7 RNA polymerase, 883 amino acid residues, purified from E. coli harboring pT7R or commercially available [reference compound]” the RNA synthesis activity [2] was “exhibited sufficient RNA synthesis activity” and the sequence reading ([3]; listed as wild type T7RNA polymerase (WT)) was “could not be correctly performed”.

For “L665P/F667Y: mutant T7 RNA polymerase with L665P and F667Y mutations”, the “ability for incorporating 3′-dATP” value [1] was “markedly improved”, the “incorporation efficiency for 3′-dCTP derivatives” value [4] was “improved” and the “peak intensities of the sequence ladders” value [4] was “less fluctuation in comparison with the wild type, and the peak showed stronger signals”. The sequence reading [3] was “possible” and the “peak intensity in sequencing reaction” value [3] was “higher peak intensity with less fluctuation”.

In the case of “F644Y: T7 RNA polymerase in which F (phenylalanine) 644 was replaced with Y (tyrosine)”, the “ability for incorporating 3′-dATP” value [1] is reported as “markedly improved”, the “length of transcription product confirmed” value ([4]; 150 μM dye terminator, 37° C., 1 hour) is reported as “about 700 bases” and the “length of sequence ladder relative to that afforded by the wild type T7 RNA polymerase” value ([4]; 150 μM dye terminator, 37° C., 1 hour, gel image FIG. 13) is reported as 3 times. For the same substance, the “incorporation efficiency for 3′-dCTP derivatives” value [4] was “improved”, the “peak intensities of the sequence ladders” value [4] was “less fluctuation in comparison with the wild type, and the peak showed stronger signals” and the sequence reading [3] was “possible”. For the same substance, the “peak intensity in sequencing reaction” value [3] was “higher peak intensity with less fluctuation”.

In the case of “F644Y/F667Y: mutant T7 RNA polymerase with F644Y and F667Y mutations”, the “ability for incorporating 3′-dATP” value [1] is reported as “almost equal to that of the F644Y/L665P/F667Y mutant”.
